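Cells were grown in 96-well plates and exposed to each compound for 48 hours at five concentrations; endpoints were interpolated linearly between bracketing concentrations, or set to the highest concentration if not reached. TGI: concentration producing complete growth inhibition.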 Where a SMILES comes first, the peptide text is derived from it. [ ]: non-standard residue; d: D form. The star is where a group is joined. NMeF = CN[CH](Cc1ccccc1)C(=O)O; NMeV = CN[CH](C(=O)O)C(C)C; Boc = CC(C)(C)OC(=O)*; OBn = c1ccc(CO*)cc1
Key:
Assay in all cases: DTP human tumour cell line panel, 48 h
[1] = test system: A549 NSCLC
[2] = test system: BT-549 breast
[3] = test system: HCC-2998 colon
[4] = test system: HCT-15 colon
[5] = test system: IGROV1 ovarian
[6] = test system: MCF7 breast
[7] = test system: MDA-N
[8] = test system: NCI-H23 lung
[9] = test system: OVCAR-4 ovarian
[10] = test system: SK-OV-3 ovarian

Row | Compound | TGI [1] [µM] | TGI [2] [µM] | TGI [3] [µM] | TGI [4] [µM] | TGI [5] [µM] | TGI [6] [µM] | TGI [7] [µM] | TGI [8] [µM] | TGI [9] [µM] | TGI [10] [µM]
1 | CCOC(=O)/C=C(/C(=O)OCC)n1c(=O)c(C)cn(C2CC(N=[N+]=[N-])C(CO)O2)c1=O (stereo not given) | > 100 | > 100 | 31.4 | > 100 | > 100 | 50.2 | > 100 | > 100 | > 100 | > 100
2 | O=C(NN=C1CCCCC1)Nc1ccccc1Cl | > 100 | > 100 | > 100 | > 100 | > 100 | > 100 | 39 | > 100 | > 100 | > 100
3 | C=C1c2nc3ccccc3n2C=C(c2ccc(Cl)cc2)N1c1ccccc1 | 27.1 | 18.8 | 26 | 24.5 | 22.1 | 25.7 | > 100 | 23.9 | 29.9 | 34.7
4 | CC(C)C(NC(=O)OC(C)(C)C)C(=O)N(C)C(Cc1ccccc1)C(=O)N(C)C(C(=O)N(C)C(C(=O)OCc1ccccc1)C(C)C)C(C)C (stereo not given) (Boc-V[NMeF][NMeV][NMeV]-OBn; configuration not given here) | > 100 |  | > 100 | > 100 | > 100 |  |  | > 100 |  | 
5 | COC(=O)C[C@H](COCc1ccccc1)NC(=O)C[C@H](COCc1ccccc1)NC(=O)C[C@H](COCc1ccccc1)NC(=O)OC(C)(C)C | > 100 | > 100 |  | > 100 | > 100 | 28.9 | > 100 | > 100 | 17.4 | > 100
6 | CSC(=S)N(C)NC(=O)c1cccc(C(=O)NN(C)C(=S)SC)n1 | 89 |  |  | > 100 | 49.9 |  |  | > 100 | 41 | 
7 | COC(=O)C1(NC(=O)C(N)CC(=O)O)C(C)C1C (stereo not given) | > 100 |  |  | > 100 | > 100 | > 100 | > 100 | > 100 | > 100 | > 100
8 | COC(=O)C1=C(OC(=O)/C(=C/c2ccc(Cl)cc2)c2ccccc2)C(C(=O)OC)[C@@]2(O)[C@@H](C(=O)OC)[C@H](C)C[C@@H]1[C@@H]2C(=O)OC (stereo not given in full) | > 100 | > 100 | > 100 | > 100 | > 100 | > 100 |  | > 100 | > 100 | > 100
9 | O=C1C[C@H](c2ccccc2)C2(C(=O)c3ccccc3C2=O)[C@@H](c2ccccc2)C1 |  | 71.9 | > 100 | > 100 | > 100 | 83 | 81 | > 100 | > 100 | > 100
10 | N#CSCC1COc2ccccc2O1 (stereo not given) | > 10 |  | > 10 | > 10 | > 10 | > 10 | > 10 | > 10 | > 10 | > 10
11 | Sc1nnc(-c2ccccc2Nc2ccccc2-c2nnc(S)n2-c2ccccc2)n1-c1ccccc1 |  | > 100 | > 100 | > 100 | 42.2 | > 100 | 85.3 | > 100 | > 100 | 
12 | Cc1nc2ccccc2c(=O)n1NC(=O)Cc1ccccc1 | > 100 | > 100 | > 100 |  | > 100 | > 100 | > 100 | > 100 | > 100 | > 100
13 | O=C1C=CC2(O[C@@H](Cc3ccccc3)[C@H](Cc3ccccc3)O2)C(SC(=O)c2ccccc2)C1 (stereo not given in full) | 16.1 | 1.11 |  | 1.71 | 2.54 | 2.12 | 5.22 | 4.67 | 4.4 | 8.04
14 | CC(NC(=O)C(C)C(=O)NCc1ccc(C(F)(F)F)cc1)C(N)=O (stereo not given) | > 100 | > 100 |  | > 100 | > 100 | > 100 | > 100 | > 100 |  | > 100
15 | Cc1nnc(N)nc1/C=C\c1cccs1 | > 100 | > 100 | 30.9 | 29.6 | 28.7 | > 100 |  | 55.1 | 74.2 | > 100
16 | C/C=C/C=C/C1=NN(c2cccc(S(=O)(=O)O)c2)C2(C1)SCC(=O)N2c1nc2ccccc2s1 (stereo not given) | > 100 | > 100 | > 100 | > 100 | > 100 | > 100 | > 100 | > 100 | > 100 | 
17 | CN(C)c1nc(N(C)C)nc(N(C)CN(C)c2nc(N(C)C)nc(N(C)C)n2)n1 | > 100 |  | > 100 | > 100 | > 100 |  |  | > 100 | > 100 | > 100
18 | COc1ccc(C2C(C(=O)O)=C(COC(C)=O)Oc3cc4c(cc32)OCO4)cc1 (stereo not given) | > 100 |  |  | > 100 | > 100 |  |  | > 100 | > 100 | > 100
19 | CCN(CC)C(=S)SNCCc1ccc(S(N)(=O)=O)cc1 | 26.5 | 30 | 50.6 | 38.5 |  |  | 40.6 | 38.7 | 35.6 | > 73.1
20 | CC(C)C(/C=C/c1ccccc1)=N\NC(=O)N/N=C(/C=C/c1ccccc1)C(C)C | > 100 |  | > 100 | 80.9 | > 100 |  |  | > 100 | > 100 | > 100
21 | CC1CCC2c3c([nH]c4ccccc34)C3C(=O)N(C4CCCCC4)C(=O)C3C2C1 (stereo not given) | 50.3 | 32.7 | > 100 | > 100 | 43.9 |  | > 100 | 54.2 |  | 42.5
22 | NCCCCNCCCN | > 100 | > 100 | > 100 | > 100 | > 100 | > 100 |  | > 100 | 37.6 | > 100
23 | Cc1ccc([N+](=O)[O-])cc1S(=O)(=O)Nc1ccc(C2=NN(c3ccc([N+](=O)[O-])cc3[N+](=O)[O-])C(c3ccccc3O)C2)cc1 (stereo not given) | > 100 | > 100 |  | > 100 | > 100 | > 100 | > 100 | 59.7 | > 100 | > 100
